In PMC5794780, “ATP-dependent conformational change in ABC-ATPase RecF serves as a switch in DNA repair” (Scientific Reports, 2018) one finds KD, hardly interacted and Kd data, which are given here for three molecules.

The target in series [1] is T1, TTERecF (Caldanaerobacter subterraneus, UniProt Q8RDL3, S282A).
T1 construct: gene recF; 42 kDa monomer, 84 kDa dimer with ATP or ATPγS
Kind of series: isothermal titration calorimetry. The conditions noted are these: pH 7.0, 20 mM Tris-HCl, 200 mM NaCl, 25 °C; one-site model; signature motif mutant. The format is binding. On the technique in general: In ITC the heat of successive injections is recorded.

The target of series [2] is T2, TTERecF (Caldanaerobacter subterraneus, UniProt Q8RDL3, N38A).
T2 construct: gene recF; 42 kDa monomer, 84 kDa dimer with ATP or ATPγS
T2 sequence (Q8RDL3 whole entry N38A): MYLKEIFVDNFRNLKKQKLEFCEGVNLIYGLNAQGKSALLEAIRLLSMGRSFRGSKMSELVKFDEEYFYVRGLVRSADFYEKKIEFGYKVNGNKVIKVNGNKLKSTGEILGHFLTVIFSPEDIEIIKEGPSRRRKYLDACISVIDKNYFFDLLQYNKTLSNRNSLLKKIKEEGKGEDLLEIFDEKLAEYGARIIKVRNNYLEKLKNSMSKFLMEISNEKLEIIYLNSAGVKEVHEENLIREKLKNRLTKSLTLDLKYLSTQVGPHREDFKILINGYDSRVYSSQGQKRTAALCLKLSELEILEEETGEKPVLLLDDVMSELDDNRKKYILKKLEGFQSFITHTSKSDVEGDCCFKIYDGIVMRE
Put plainly: isothermal titration calorimetry. The format is binding. As to conditions: pH 7.0, 20 mM Tris-HCl, 200 mM NaCl, 25 °C; one-site model; Walker A mutant.

Series [3] addresses T3, TTERecF (Caldanaerobacter subterraneus, UniProt Q8RDL3, S37A).
T3 construct: gene recF; 42 kDa monomer, 84 kDa dimer with ATP or ATPγS
Put plainly: isothermal titration calorimetry. It is filed as binding.

In series [4] the target is T4, TTERecF (Caldanaerobacter subterraneus, UniProt Q8RDL3).
T4 construct: gene recF; 42 kDa monomer, 84 kDa dimer with ATP or ATPγS
Put plainly: isothermal titration calorimetry. The format is binding.

The target in series [5] is T5, TTERecF (Caldanaerobacter subterraneus, UniProt Q8RDL3, K36A).
T5 construct: gene recF; 42 kDa monomer, 84 kDa dimer with ATP or ATPγS
T5 sequence (Q8RDL3 whole entry K36A): as the sequence (Q8RDL3 whole entry N38A) above, with K36A, A38N counted along it
Kind of series: isothermal titration calorimetry. It is filed as binding.

The target in series [6] is T6, TTERecF (Caldanaerobacter subterraneus, UniProt Q8RDL3, Q286A).
T6 construct: gene recF; 42 kDa monomer, 84 kDa dimer with ATP or ATPγS
T6 sequence (Q8RDL3 whole entry Q286A): as the sequence (Q8RDL3 whole entry N38A) above, with A38N, Q286A counted along it
Kind of series: isothermal titration calorimetry. It is filed as binding. The conditions noted are these: pH 7.0, 20 mM Tris-HCl, 200 mM NaCl, 25 °C; one-site model; signature motif mutant.

For series [7], the target named is T7, TTERecF (Caldanaerobacter subterraneus, UniProt Q8RDL3, S283A).
T7 construct: gene recF; 42 kDa monomer, 84 kDa dimer with ATP or ATPγS
T7 sequence (Q8RDL3 whole entry S283A): as the sequence (Q8RDL3 whole entry N38A) above, with A38N, S283A counted along it
Kind of series: isothermal titration calorimetry. The format is binding. As to conditions: pH 7.0, 20 mM Tris-HCl, 200 mM NaCl, 25 °C; one-site model; signature motif mutant.

The target of series [8] is T8, TTERecF (Caldanaerobacter subterraneus, UniProt Q8RDL3, G35A).
T8 construct: gene recF; 42 kDa monomer, 84 kDa dimer with ATP or ATPγS
T8 sequence (Q8RDL3 whole entry G35A): as the sequence (Q8RDL3 whole entry N38A) above, with G35A, A38N counted along it
Put plainly: isothermal titration calorimetry. The format is binding. As to conditions: pH 7.0, 20 mM Tris-HCl, 200 mM NaCl, 25 °C; one-site model; Walker A mutant.

Another series has as its target T9, TTERecF-ATP dimer (Thermoanaerobacter tengcongensis MB4, UniProt Q8RDL3 1-364).
T9 sequence: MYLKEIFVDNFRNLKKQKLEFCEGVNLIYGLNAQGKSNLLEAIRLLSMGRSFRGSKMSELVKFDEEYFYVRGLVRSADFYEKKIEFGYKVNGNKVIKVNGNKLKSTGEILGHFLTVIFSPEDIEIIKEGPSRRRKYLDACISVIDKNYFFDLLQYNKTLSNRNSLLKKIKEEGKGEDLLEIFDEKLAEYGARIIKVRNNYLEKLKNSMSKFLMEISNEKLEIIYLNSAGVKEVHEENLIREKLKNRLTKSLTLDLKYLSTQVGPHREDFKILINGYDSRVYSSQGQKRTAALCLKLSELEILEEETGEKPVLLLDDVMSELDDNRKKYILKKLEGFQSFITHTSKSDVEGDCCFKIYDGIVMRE
Put plainly: BLI; ATP (1 mM in preincubation); kd 1.44E-03 s-1; BLI: 20 mM Tris-HCl pH 7.0, 200 mM NaCl, 0.05% Tween 20, 25 C; biotinylated DNA on streptavidin sensors; no Mg2+ stated. The conditions noted are these: protein: recombinant; tags: N-terminal His6; chain copies: 2; label: 5' biotin. A general note: Biolayer interferometry detects binding as a change in optical thickness at a sensor tip.

T3 sequence (Q8RDL3 whole entry S37A): as the sequence (Q8RDL3 whole entry N38A) above, with S37A, A38N counted along it
T1 sequence (Q8RDL3 whole entry S282A): as the sequence (Q8RDL3 whole entry N38A) above, with A38N, S282A counted along it

In the case of `Nc1ncnc2c1ncn2[C@@H]1O[C@H](COP(=O)(O)OP(=O)(O)OP(=O)(O)O)[C@@H](O)[C@H]1O` [ATP], the KD result on TTERecF [1] is “conserved mutant residues S282A, S283A, and Q286A in signature motif was similar”; at TTERecF [6], “conserved mutant residues S282A, S283A, and Q286A in signature motif was similar”; on TTERecF [7] it was “conserved mutant residues S282A, S283A, and Q286A in signature motif was similar”. The hardly interacted result on TTERecF [2] is “The mutants G35A and N38A hardly interacted with ATP”; on TTERecF [8], “The mutants G35A and N38A hardly interacted with ATP”. Besides, the dissociation constant Kd at TTERecF [3] amounted to 27 ± 7.9 µM; at TTERecF [4], 1.3 µM; on TTERecF [5], 38 ± 8.7 µM.

For the molecule `Nc1ncnc2c1ncn2[C@@H]1O[C@H](CO[P@](=O)(O)O[P@](=O)(O)O[P@@](=O)(O)S)[C@@H](O)[C@H]1O` [ATPɤS], the Kd at TTERecF [4] worked out at 32 µM.

As for ACCTTATGGAAAGCATCGTAG (ssDNA) [21mer ssDNA], the dissociation constant Kd with TTERecF-ATP dimer turned out to be 0.016 µM.

A word on the Kd: it is the constant that tells how readily two partners part at equilibrium.
